According to patent publication US9499787B2, “Method for differentiating stem cells into neurons” (Dongguk University Industry-Academic Cooperation Foundation, priority 2012, dated 2016):

How the values were obtained:
human cells = conditions: serum-free culture of human cells; cited from earlier work
Mesenchymal stem cells [1] = experiment: Immunofluorescence staining of neuron-associated proteins; format: cell-based, human; conditions: all cases treated with lipoic acid, 5 days after differentiation, compared to the control
Protocol: (§1) Mesenchymal stem cells were seeded in low glucose-Dulbecco's Modified Eagle's Medium (LG-DMEM) containing 10% fetal bovine serum (FBS) at a density of 5×10^3 cell/cm2. 24 hours after seeding, the medium was replaced with fresh DMEM/F-12 (1:1 mixed medium) supplemented with 1 uM hydrocortisone, […], 1% bovine serum albumin, and 0, 1, 2, 3, 4, 5 or 8 mM lipoic acid to induce differentiation into neural cells. Moreover, 1 uM forskolin was further added to promote differentiation into neural cells.
The neural cells cultured in Example 3 were fixed on glass coverslips with 4% paraformaldehyde for 10 minutes, blocked with PBS containing 1.5% bovine serum albumin (BSA), and then permeabilized with PBS containing 0.5% Triton™ X-100. Then, the cells were reacted with primary antibodies such as anti-NF-L, anti-MAP2, anti-GFAP, anti-NeuroD1 (Cell Signaling, USA), and anti-tau (Biosource, USA) at 4° C. for 16 hours. Then, the cells were washed with PBS for 10 minutes and reacted with species-specific secondary antibodies such as anti-rabbit IgG-Alexa Fluor® 488 or anti-mouse IgG-Alexa Fluor® 555 conjugate at room temperature for 1 hour. Then, the stained cells were mounted with Vectashield® mounting medium containing DAPI and contrast stained. The cells were examined using a Confocal Laser Scanning Microscope (LSM 510-meta, Germany), and the results are shown in FIG. 9.

Mesenchymal stem cells [2] = experiment: RT-PCR of neuron-related genes (MAP2, DCX, Tau, NeuroD1, NSE, Nestin, NF-L); format: cell-based, human; conditions: 5 days after differentiation, compared to the control
Protocol: as §1
The total RNA was recovered and isolated using TRIzol® solution (Invitrogen, USA), and then 1 ug RNA was used to synthesize cDNA using an RT-PCR kit (Clontech, USA). The genes to be analyzed were MAP2, DCX, Tau, NeuroD1, NSE, Nestin and NF-L, and the primers used for the analysis are shown in the following Table 1.

Mesenchymal stem cells [3] = experiment: Western blot analysis of neuron-associated proteins (NSE, Nestin, NF-L); format: cell-based, human; conditions: 5 days after differentiation, compared to the control
Protocol: as §1
The neural cells cultured in Example 3 were washed with phosphate-buffered saline (PBS) and lysed with radioimmunoprecipitation (RIPA) buffer containing protease inhibitor. The total protein was measured using a BCA® Protein Assay kit (Pierce, USA), and 10 ug protein was electrophoresed on a 10% polyacrylamide gel and transferred to a nitrocellulose membrane. Then, the membrane was blocked with Tris-buffered saline (TBS) containing 5% skim milk and 0.5% Tween® 20 at room temperature for 30 minutes and reacted with antibodies such as anti-NSE, anti-Nestin, Anti-NF-L (Cell Signaling, USA), and β-actin (Sigma, USA) at 4° C. for 16 hours. Subsequently, the membrane was reacted with an anti-mouse or anti-rabbit secondary antibody at room temperature for 1 hour, exposed to ECL™ (Pierce™ Biotechnology, USA), and then imaged using a ChemiDoc™ XRS+Imaging System (BioRad®, USA).

Mesenchymal stem cells [4] = experiment: Differentiation into neural cells, cellular morphology under a microscope; format: cell-based, human; conditions: for maintenance of the morphology of neural cells: after induction of differentiation
Protocol: Mesenchymal stem cells obtained from adipose tissue used in this Example were StemPro® Adipose-derived Stem Cells (Product No. R7788-110) purchased from Invitrogen. Frozen ampoules were thawed, and cells were washed with DMEM, centrifuged at 800 RPM for 5 minutes, and cultured in DMEM containing low glucose (1000 mg/L) and supplemented with 10% fetal bovine serum (FBS).
as §1

Mesenchymal stem cells [5] = experiment: Cell viability measured by MTT; format: cell-based, human
Protocol: The cell viability was measured by MTT (3-(4,5-dimethylthiazol-2-yl)-2,5-diphenyltetrazolium bromide). Specifically, MTT solution (0.0333 g/ml DMEM) was added to the neural cells cultured in Example 3 for reaction at 37° C. for 90 minutes and then removed. Then, dimethyl sulfoxide (DMSO) was added and left to stand for 10 minutes, and the resulting solution was used to measure the absorbance at 570 nm using a spectrum analyzer. Mesenchymal stem cells were seeded in low glucose-Dulbecco's Modified Eagle's Medium (LG-DMEM) containing 10% fetal bovine serum (FBS) at a density of 5×10^3 cell/cm2. 24 hours after seeding, the medium was replaced with fresh DMEM/F-12 (1:1 mixed medium) supplemented with 1 ug hydrocortisone, […], 1% bovine serum albumin, and 0, 1, 2, 3, 4, 5 or 8 mM lipoic acid to induce differentiation into neural cells. Moreover, 1 ug forskolin or […] (NGF) might be further added to enhance differentiation into neural cells. […]

SMILES | concentration known to cause cell apoptosis (human cells) [µM] | expression of neuron-associated proteins (immunofluorescence) (Mesenchymal stem cells [1]) | expression of neuron-related genes (mRNAs) (Mesenchymal stem cells [2]; 4 mM lipoic acid) | expression of neuron-related genes (mRNAs) (Mesenchymal stem cells [2]; 8 mM lipoic acid) | expression of neuron-associated proteins (Western blot) (Mesenchymal stem cells [3]; 4 mM lipoic acid) | expression of neuron-associated proteins (Western blot) (Mesenchymal stem cells [3]; 8 mM lipoic acid) | maintenance of the morphology of neural cells (Mesenchymal stem cells [4]) | morphological changes of neural cells (Mesenchymal stem cells [4]; lipoic acid at 1 mM, 5 days, with hydrocortisone, insulin, 1% bovine serum albumin) | morphological changes of neural cells (dendrite formation) (Mesenchymal stem cells [4]; lipoic acid at more than 2 mM, 5 days, with 1 uM hydrocortisone, […], 1% bovine serum albumin) | cell viability (Mesenchymal stem cells [5]; human, 4 mM) [%] | cell viability (Mesenchymal stem cells [5]; human, 8 mM) [%] | cell viability (Mesenchymal stem cells [5]; 5 days, 200 ug butylated hydroxyanisole (control))
O=C(O)CCCC[C@@H]1CCSS1 (racemic) [lipoic acid] | ≥ 2000 | increased | further increased | increased | further increased | increased | well maintained up to 5 days | no change | dendrites were well formed | 61.4 | 51.4 | –
COc1ccc(O)c(C(C)(C)C)c1 [butylated hydroxyanisole] | – | – | – | – | – | – | destroyed after 24 hours | – | – | – | – | too low
